Assay results reported in ChEMBL document CHEMBL5137012, “The role of the maleimide ring system on the structure-activity relationship of showdomycin” (Eur J Med Chem, 2022).
Values belong to the compound of their own block, whether it stands above or below them. The source made the active and inactive calls. No cut-off for these calls is given here.

Columns and labels:
Escherichia coli [1] = assay: Substrate activity at Escherichia coli RNA polymerase assessed as extension of transcription elongation complex by measuring incorporation into RNA in place of UTP at 100 uM incubated for 1 min in presence of GTP by PAGE analysis
Escherichia coli [2] = assay: Antibacterial activity against Escherichia coli K12 expressing modified luxABCDE genes assessed as reduction in bacterial growth by measuring reduction in bioluminescence incubated for 16 hrs by microplate reader analysis; type: functional, organism-based; details: DDE = dose-dependent effect
Escherichia coli [3] = assay: Antibacterial activity against Escherichia coli K12 expressing modified luxABCDE genes assessed as reduction in bacterial growth by measuring reduction in optical density incubated for 16 hrs by microplate reader analysis; type: functional, organism-based; details: DDE = dose-dependent effect
Escherichia coli [4] = assay: Antibacterial activity against Escherichia coli K12 expressing modified luxABCDE genes assessed as reduction in bacterial growth by measuring reduction in bioluminescence at 0.002 to 2.5 mM incubated for 16 hrs by microplate reader analysis; type: functional, organism-based; details: dose 0.002-2.5 mM
HEK-293T [5] = assay: Cytotoxicity against HEK293T cells at 125 uM incubated for 24 hrs by LDH assay; type: toxicity, cell-based; details: human
HEK-293T [6] = assay: Cytotoxicity against HEK293T cells assessed as morphological changes at 125 uM; type: toxicity, cell-based; details: human
Escherichia coli [7] = assay: Antibacterial activity against Escherichia coli K12 expressing modified luxABCDE genes assessed as reduction in bacterial growth by measuring reduction in optical density at 0.002 to 2.5 mM incubated for 16 hrs by microplate reader analysis; type: functional, organism-based; details: dose 0.002-2.5 mM
Escherichia coli [8] = assay: Antibacterial activity against Escherichia coli K12 expressing modified luxABCDE genes assessed as reduction in bacterial growth by measuring reduction in bioluminescence at low concentrations measured after 250 mins by microplate reader analysis; type: functional, organism-based
Escherichia coli [9] = assay: Bactericidal activity against Escherichia coli K12 expressing modified luxABCDE genes assessed as reduction in luminescence at 2.5 mM incubated for 16 hrs by microplate reader analysis; type: functional, organism-based
Escherichia coli [10] = assay: Antibacterial activity against Escherichia coli K12 expressing modified luxABCDE genes assessed as reduction in bacterial growth by measuring reduction in bioluminescence at 0.002 to 2.5 mM incubated for 16 hrs in presence of uridine at 0.002 to 12.5 mM by microplate reader analysis; type: functional, organism-based; details: dose 0.002-2.5 mM
Escherichia coli [11] = assay: Antibacterial activity against Escherichia coli K12 expressing modified luxABCDE genes assessed as reduction in bacterial growth by measuring reduction in optical density at 0.002 to 2.5 mM incubated for 16 hrs in presence of uridine at 0.002 to 12.5 mM by microplate reader analysis; type: functional, organism-based; details: dose 0.002-2.5 mM
HEK-293T [12] = assay: Cytotoxicity against HEK293T cells assessed as reduction in viable cells at 500 uM incubated for 24 hrs by CCK-8 assay; type: toxicity, cell-based; details: human
Escherichia coli [13] = assay: Antibacterial activity against Escherichia coli K12 expressing modified luxABCDE genes assessed as reduction in bacterial growth by measuring reduction in optical density at 40 uM incubated for 16 hrs by microplate reader analysis; type: functional, organism-based
Escherichia coli [14] = assay: Antibacterial activity against Escherichia coli K12 expressing modified luxABCDE genes assessed as reduction in bacterial growth by measuring reduction in bioluminescence at 40 uM incubated for 16 hrs by microplate reader analysis; type: functional, organism-based
Escherichia coli [15] = assay: Inhibition of Escherichia coli RNA polymerase-mediated processive transcription elongation at polythymidine sequence at 2 mM incubated for 5 mins by PAGE analysis
Homo sapiens [16] = species on record: Homo sapiens; assay: Substrate activity at human mitochondria RNA polymerase assessed as extension of transcription elongation complex by measuring incorporation into RNA in place of UTP at 100 uM incubated for 1 min in presence of GTP by PAGE analysis
Saccharomyces cerevisiae [17] = assay: Inhibition of Saccharomyces cerevisiae RNA polymerase 2-mediated processive transcription elongation at polythymidine sequence at 2 mM incubated for 5 mins by PAGE analysis
Saccharomyces cerevisiae [18] = assay: Substrate activity at Saccharomyces cerevisiae RNA polymerase 2 assessed as extension of transcription elongation complex by measuring incorporation into RNA in place of UTP at 100 uM incubated for 1 min in presence of GTP by PAGE analysis
Escherichia coli [19] = assay: Substrate activity at Escherichia coli RNA polymerase assessed as one nucleotide extension of transcription elongation complex by measuring incorporation of 4-ethylthioshowdomycin-5'-monophosphate into RNA at 100 uM incubated for 1 min by ATTO680 fluorophore based PAGE analysis
Homo sapiens [20] = species on record: Homo sapiens; assay: Substrate activity at human mitochondria RNA polymerase assessed as one nucleotide extension of transcription elongation complex by measuring incorporation of 4-ethylthioshowdomycin-5'-monophosphate into RNA at 100 uM incubated for 1 min by ATTO680 fluorophore based PAGE analysis
Homo sapiens [21] = species on record: Homo sapiens; assay: Substrate activity at human mitochondria RNA polymerase assessed as two nucleotide extension of transcription elongation complex by measuring incorporation of 4-ethylthioshowdomycin-5'-monophosphate into RNA at 100 uM incubated for 1 min in presence of GTP by ATTO680 fluorophore based PAGE analysis
Escherichia coli [22] = assay: Bactericidal activity against Escherichia coli K12 expressing modified luxABCDE genes assessed as reduction in luminescence at 0.625 mM incubated for 16 hrs by microplate reader analysis; type: functional, organism-based
HEK-293T [23] = assay: Cytotoxicity against HEK293T cells assessed as reduction in viable cells at 125 uM incubated for 24 hrs by CCK-8 assay; type: toxicity, cell-based; details: human
HEK-293T [24] = assay: Cytotoxicity against HEK293T cells at 30 uM incubated for 24 hrs by LDH assay; type: toxicity, cell-based; details: human
HEK-293T [25] = assay: Cytotoxicity against HEK293T cells assessed as morphological changes at 30 uM; type: toxicity, cell-based; details: human

Activity (Escherichia coli [1]): Active
Structure (SMILES): C[C@@H](SC1=C([C@@H]2O[C@H](COP(=O)(O)OP(=O)(O)OP(=O)(O)O)[C@@H](O)[C@H]2O)C(=O)NC1=O)C(=O)O

Activity (Escherichia coli [1]): Active
Structure (SMILES): C[C@H](SC1=C([C@@H]2O[C@H](COP(=O)(O)OP(=O)(O)OP(=O)(O)O)[C@@H](O)[C@H]2O)C(=O)NC1=O)C(=O)O

inhibition (Escherichia coli [15]): Active
Activity (Escherichia coli [19]): Active
Activity (Homo sapiens [20]): Active
Activity (Homo sapiens [21]): Active
inhibition (Saccharomyces cerevisiae [17]): Active
Structure (SMILES): CCSC1=C([C@@H]2O[C@H](COP(=O)(O)OP(=O)(O)OP(=O)(O)O)[C@@H](O)[C@H]2O)C(=O)NC1=O

inhibition (Escherichia coli [15]): Active
Activity (Escherichia coli [1]): Active
Activity (Homo sapiens [16]): Active
inhibition (Saccharomyces cerevisiae [17]): Active
Activity (Saccharomyces cerevisiae [18]): Active
Structure (SMILES): O=C1NC(=O)C([C@@H]2O[C@H](COP(=O)(O)OP(=O)(O)OP(=O)(O)O)[C@@H](O)[C@H]2O)=C1Br

inhibition (Escherichia coli [15]): Active
Activity (Escherichia coli [1]): Active
Activity (Homo sapiens [16]): Active
inhibition (Saccharomyces cerevisiae [17]): Active
Activity (Saccharomyces cerevisiae [18]): Active
Structure (SMILES): CSC1=C([C@@H]2O[C@H](COP(=O)(O)OP(=O)(O)OP(=O)(O)O)[C@@H](O)[C@H]2O)C(=O)NC1=O

More lines, now with the values behind:

Structure (SMILES): N=C(N)NCC(=O)N(O)C(CCC(N)=O)C(=O)NC[C@H]1O[C@@H](c2c[nH]c(=O)[nH]c2=O)[C@H](O)[C@@H]1O (stereo partly drawn)
Activity (Escherichia coli [2]): Dde
Activity (Escherichia coli [3]): Dde

Structure (SMILES): CCSC1=C([C@@H]2O[C@H](CO)[C@@H](O)[C@H]2O)C(=O)NC1=O
Activity (Escherichia coli [4]): Active
Activity (HEK-293T [5]): Toxic
Activity (HEK-293T [6]): Toxic
Activity (Escherichia coli [7]): Active
Activity (Escherichia coli [8]): Active
Activity (Escherichia coli [9]): Active
Activity (Escherichia coli [10]): Active
Activity (Escherichia coli [11]): Active
Activity (HEK-293T [12]): Toxic

Structure (SMILES): CN[C@@H]1[C@@H](O[C@H]2O[C@H](CO)[C@@H](N)[C@H](O)[C@H]2O)O[C@H]2C[C@@H](N)[C@@H](O[C@H]3[C@H](O)[C@@H](O)[C@H](N)C[C@@H]3N)O[C@@H]2[C@@H]1O
Activity (Escherichia coli [13]): Active
Activity (Escherichia coli [14]): Active

Structure (SMILES): C[Se]C1=C([C@@H]2O[C@H](COP(=O)(O)OP(=O)(O)OP(=O)(O)O)[C@@H](O)[C@H]2O)C(=O)NC1=O
inhibition (Escherichia coli [15]): Active
Activity (Escherichia coli [1]): Active
Activity (Homo sapiens [16]): Active
inhibition (Saccharomyces cerevisiae [17]): Active
Activity (Saccharomyces cerevisiae [18]): Active

Structure (SMILES): NC[C@H]1O[C@H](O[C@H]2[C@H](O)[C@@H](O[C@H]3O[C@H](CO)[C@@H](O)[C@H](N)[C@H]3O)[C@H](N)C[C@@H]2N)[C@H](O)[C@@H](O)[C@@H]1O
Activity (Escherichia coli [13]): Active
Activity (Escherichia coli [14]): Active

Structure (SMILES): O=C1C=C([C@@H]2O[C@H](CO)[C@@H](O)[C@H]2O)C(=O)N1
Activity (Escherichia coli [4]): Active
Activity (Escherichia coli [7]): Active
Activity (Escherichia coli [22]): Active
Activity (HEK-293T [23]): Toxic
Activity (HEK-293T [24]): Toxic
Activity (HEK-293T [25]): Toxic
